According to ChEMBL document CHEMBL1201862, “PubChem BioAssay data set” (2004):
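Assay format: 96-well plates, 48-hour exposure. Abbreviation: GI50, concentration required for 50% inhibition of growth.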 The source made the active and inactive calls. Cut-off read from the data, not from the text of the source: active = GI50 up to about 1.1 µM and inactive = higher.

How the values were obtained:
Assay in all cases: growth of human tumour cells (NCI), 48 h
A498 = system: A498
CAKI-1 = system: CAKI-1
CCRF-CEM = system: CCRF-CEM
HCC 2998 = system: HCC 2998
HL-60 = system: HL-60
HOP-92 = system: HOP-92
Hs-578T = system: Hs-578T
K562 = system: K562
LOX IMVI = system: LOX IMVI
MDA-MB-435 = system: MDA-MB-435
MDA-N = system: MDA-N
NCI-H460 = system: NCI-H460
NCI/ADR-RES = system: NCI/ADR-RES
OVCAR-3 = system: OVCAR-3
OVCAR-4 = system: OVCAR-4
SF-295 = system: SF-295
SK-MEL-2 = system: SK-MEL-2
SN12C = system: SN12C
SW-620 = system: SW-620
U-251 = system: U-251

CCOC(=O)c1c(N2CCOCC2)[nH]c(=O)c(C(c2c(O)c(C(=O)OCC)c(N3CCOCC3)[nH]c2=O)C(C)C)c1O
GI50 (A498): > 100 µM (inactive) | GI50 (CAKI-1): > 100 µM (inactive) | GI50 (CCRF-CEM): > 100 µM (inactive) | GI50 (HCC 2998): > 100 µM (inactive) | GI50 (HL-60): > 100 µM (inactive) | GI50 (HOP-92): 80.5 µM (inactive) | GI50 (Hs-578T): 47.9 µM (inactive) | GI50 (K562): > 100 µM (inactive) | GI50 (LOX IMVI): > 100 µM (inactive) | GI50 (MDA-MB-435): > 100 µM (inactive) | GI50 (MDA-N): > 100 µM (inactive) | GI50 (NCI-H460): > 100 µM (inactive) | GI50 (NCI/ADR-RES): > 100 µM (inactive) | GI50 (OVCAR-3): > 100 µM (inactive) | GI50 (OVCAR-4): > 100 µM (inactive) | GI50 (SF-295): 58.3 µM (inactive) | GI50 (SK-MEL-2): > 100 µM (inactive) | GI50 (SN12C): > 100 µM (inactive) | GI50 (SW-620): > 100 µM (inactive) | GI50 (U-251): > 100 µM (inactive)

CNc1cc2oc(=O)cc(C)c2cc1C
GI50 (A498): 43.2 µM (inactive) | GI50 (CAKI-1): > 100 µM (inactive) | GI50 (CCRF-CEM): > 100 µM (inactive) | GI50 (HCC 2998): > 100 µM (inactive) | GI50 (HL-60): 25.4 µM (inactive) | GI50 (HOP-92): 89.3 µM (inactive) | GI50 (Hs-578T): 79.1 µM (inactive) | GI50 (K562): > 100 µM (inactive) | GI50 (LOX IMVI): > 100 µM (inactive) | GI50 (MDA-MB-435): 86.3 µM (inactive) | GI50 (MDA-N): > 100 µM (inactive) | GI50 (NCI-H460): > 100 µM (inactive) | GI50 (NCI/ADR-RES): > 100 µM (inactive) | GI50 (OVCAR-3): > 100 µM (inactive) | GI50 (OVCAR-4): > 100 µM (inactive) | GI50 (SF-295): > 100 µM (inactive) | GI50 (SK-MEL-2): > 100 µM (inactive) | GI50 (SN12C): > 100 µM (inactive) | GI50 (SW-620): > 100 µM (inactive) | GI50 (U-251): > 100 µM (inactive)

CN1CCN([C@H]2C[C@H]3[C@@H]4CC=C5C[C@@H](N6CCCC6)CC[C@]5(C)[C@H]4CC[C@]3(C)[C@H]2O)CC1
GI50 (A498): 46.1 µM (inactive) | GI50 (CAKI-1): > 10 µM (inactive) | GI50 (CCRF-CEM): 38.6 µM (inactive) | GI50 (HCC 2998): 33.3 µM (inactive) | GI50 (HL-60): 21.2 µM (inactive) | GI50 (HOP-92): 84.9 µM (inactive) | GI50 (Hs-578T): > 100 µM (inactive) | GI50 (K562): 14.9 µM (inactive) | GI50 (LOX IMVI): 19.6 µM (inactive) | GI50 (MDA-MB-435): 26.1 µM (inactive) | GI50 (MDA-N): 19 µM (inactive) | GI50 (NCI-H460): 71.8 µM (inactive) | GI50 (NCI/ADR-RES): > 100 µM (inactive) | GI50 (OVCAR-3): > 100 µM (inactive) | GI50 (OVCAR-4): > 100 µM (inactive) | GI50 (SF-295): 48.4 µM (inactive) | GI50 (SK-MEL-2): > 100 µM (inactive) | GI50 (SN12C): > 100 µM (inactive) | GI50 (SW-620): 33.4 µM (inactive) | GI50 (U-251): 59.2 µM (inactive)

NNC(=O)C(O)C(O)C(O)CO (stereo not given)
GI50 (A498): > 100 µM (inactive) | GI50 (CAKI-1): > 100 µM (inactive) | GI50 (CCRF-CEM): > 100 µM (inactive) | GI50 (HCC 2998): > 100 µM (inactive) | GI50 (HL-60): > 100 µM (inactive) | GI50 (HOP-92): > 100 µM (inactive) | GI50 (Hs-578T): > 100 µM (inactive) | GI50 (K562): > 100 µM (inactive) | GI50 (LOX IMVI): 88.9 µM (inactive) | GI50 (MDA-MB-435): > 100 µM (inactive) | GI50 (MDA-N): > 100 µM (inactive) | GI50 (NCI-H460): > 100 µM (inactive) | GI50 (NCI/ADR-RES): > 100 µM (inactive) | GI50 (OVCAR-3): > 100 µM (inactive) | GI50 (OVCAR-4): > 100 µM (inactive) | GI50 (SF-295): > 100 µM (inactive) | GI50 (SK-MEL-2): > 100 µM (inactive) | GI50 (SN12C): > 100 µM (inactive) | GI50 (SW-620): > 100 µM (inactive) | GI50 (U-251): > 100 µM (inactive)

O=C1N[C@H]2C(=O)c3c(Cl)sc(Cl)c3[C@H]2O1
GI50 (A498): 24.1 µM (inactive) | GI50 (CAKI-1): 4.79 µM (inactive) | GI50 (CCRF-CEM): 0.774 µM (active) | GI50 (HCC 2998): 1.94 µM (inactive) | GI50 (HL-60): 2.18 µM (inactive) | GI50 (HOP-92): 7.45 µM (inactive) | GI50 (Hs-578T): 23.2 µM (inactive) | GI50 (K562): 1.99 µM (inactive) | GI50 (LOX IMVI): 2.7 µM (inactive) | GI50 (MDA-MB-435): 4.81 µM (inactive) | GI50 (MDA-N): 5.06 µM (inactive) | GI50 (NCI-H460): 18.1 µM (inactive) | GI50 (NCI/ADR-RES): 20.1 µM (inactive) | GI50 (OVCAR-3): 1.92 µM (inactive) | GI50 (OVCAR-4): 2.15 µM (inactive) | GI50 (SF-295): 16.9 µM (inactive) | GI50 (SK-MEL-2): 19.5 µM (inactive) | GI50 (SN12C): 10.9 µM (inactive) | GI50 (SW-620): 2.18 µM (inactive) | GI50 (U-251): 3.32 µM (inactive)

CN(N=O)C(=O)NNC(=O)N(C)N=O
GI50 (A498): > 100 µM (inactive) | GI50 (CAKI-1): > 100 µM (inactive) | GI50 (CCRF-CEM): 31.7 µM (inactive) | GI50 (HCC 2998): > 100 µM (inactive) | GI50 (HL-60): 31.6 µM (inactive) | GI50 (HOP-92): 47.1 µM (inactive) | GI50 (Hs-578T): > 100 µM (inactive) | GI50 (K562): 66.1 µM (inactive) | GI50 (LOX IMVI): 44.4 µM (inactive) | GI50 (MDA-MB-435): > 100 µM (inactive) | GI50 (MDA-N): > 100 µM (inactive) | GI50 (NCI-H460): 42.4 µM (inactive) | GI50 (NCI/ADR-RES): > 100 µM (inactive) | GI50 (OVCAR-3): > 100 µM (inactive) | GI50 (OVCAR-4): > 100 µM (inactive) | GI50 (SF-295): 94.6 µM (inactive) | GI50 (SK-MEL-2): 73.3 µM (inactive) | GI50 (SN12C): > 100 µM (inactive) | GI50 (SW-620): 36.2 µM (inactive) | GI50 (U-251): 52.5 µM (inactive)

COc1ccc2c(=O)c3ccoc3n(CC=C(C)C)c2c1 [ACROPHYLLINE]
GI50 (A498): > 63.2 µM (inactive) | GI50 (CAKI-1): 2.99 µM (inactive) | GI50 (CCRF-CEM): 39.4 µM (inactive) | GI50 (HCC 2998): > 91.4 µM (inactive) | GI50 (HL-60): 23.6 µM (inactive) | GI50 (HOP-92): > 26.2 µM (inactive) | GI50 (Hs-578T): 31.3 µM (inactive) | GI50 (K562): 48.9 µM (inactive) | GI50 (LOX IMVI): 42.3 µM (inactive) | GI50 (MDA-MB-435): 75.9 µM (inactive) | GI50 (MDA-N): 73.8 µM (inactive) | GI50 (NCI-H460): 50.2 µM (inactive) | GI50 (NCI/ADR-RES): 18.8 µM (inactive) | GI50 (OVCAR-3): 85.7 µM (inactive) | GI50 (OVCAR-4): 44.7 µM (inactive) | GI50 (SF-295): 57.9 µM (inactive) | GI50 (SK-MEL-2): 81.7 µM (inactive) | GI50 (SN12C): > 100 µM (inactive) | GI50 (SW-620): 97.3 µM (inactive) | GI50 (U-251): > 100 µM (inactive)

COc1ccc(-c2cc(=O)c3c(OC)c(OC)c(OC)cc3o2)cc1
GI50 (A498): 19.8 µM (inactive) | GI50 (CAKI-1): 68.7 µM (inactive) | GI50 (CCRF-CEM): 14 µM (inactive) | GI50 (HCC 2998): 16.8 µM (inactive) | GI50 (HL-60): 11.7 µM (inactive) | GI50 (HOP-92): 20.6 µM (inactive) | GI50 (Hs-578T): 35.6 µM (inactive) | GI50 (K562): 34.4 µM (inactive) | GI50 (LOX IMVI): 28.2 µM (inactive) | GI50 (MDA-MB-435): 32.2 µM (inactive) | GI50 (MDA-N): 40.6 µM (inactive) | GI50 (NCI-H460): 24 µM (inactive) | GI50 (NCI/ADR-RES): 28.2 µM (inactive) | GI50 (OVCAR-3): 26.8 µM (inactive) | GI50 (OVCAR-4): 24.2 µM (inactive) | GI50 (SF-295): 24.5 µM (inactive) | GI50 (SK-MEL-2): 21.1 µM (inactive) | GI50 (SN12C): 25.2 µM (inactive) | GI50 (SW-620): 36.8 µM (inactive) | GI50 (U-251): 26.3 µM (inactive)
